Where a chain is given by its changes, count along the chain named. Counter-ions that a name gives are not always drawn.
Columns and labels:
[1] = target: T1, MRGPRX2-WT (wild-type MRGPRX2 receptor) (Homo sapiens, UniProt Q96LB1); assay: Primary HTS, Ca2+ mobilization (fluorescence ratio, B-score) in HEK293-Gα15 cells stably expressing wild-type MRGPRX2; type: cell-based; conditions: 10 μM compound
T1 construct: expressed in transfected cells
T1 sequence (Q96LB1 1-330): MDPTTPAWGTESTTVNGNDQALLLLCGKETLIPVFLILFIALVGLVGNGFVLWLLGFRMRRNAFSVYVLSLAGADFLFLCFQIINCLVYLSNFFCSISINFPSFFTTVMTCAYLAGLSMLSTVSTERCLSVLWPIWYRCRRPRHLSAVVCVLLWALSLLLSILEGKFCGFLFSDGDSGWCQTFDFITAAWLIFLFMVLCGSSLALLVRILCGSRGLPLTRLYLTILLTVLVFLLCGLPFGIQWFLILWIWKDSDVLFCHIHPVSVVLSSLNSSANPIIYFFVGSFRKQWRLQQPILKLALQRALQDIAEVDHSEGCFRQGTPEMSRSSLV

[2] = target: T2, MRGPRX2-MUT (MRGPRX2 N62S mutation) (Homo sapiens, UniProt Q96LB1, N62S); assay: Primary HTS, Ca2+ mobilization (fluorescence ratio, B-score) in HEK293-Gα15 cells stably expressing the MRGPRX2 N62S mutation; type: cell-based; conditions: for B-scores (MUT): 10 μM compound, MRGPRX2-MUT (N62S) cells; for Change of B-scores (%): 10 μM
T2 construct: expressed in transfected cells
T2 sequence (Q96LB1 1-330 N62S): T1 sequence (Q96LB1 1-330) with N62S

[3] = MRGPRX2-MUT in comparison to MRGPRX2-WT cells, Supplementary Table 1
[4] = MRGPRX2-MUT in comparison to MRGPRX2-WT cells, Table 1
[5] = MRGPRX2-MUT versus MRGPRX2-WT cells, Supplementary Table 2

NC[C@H](O)c1ccc(O)c(O)c1 [Norepinephrine]
B-scores (WT) ([1]; Supplementary Table 1): 28.83
B-scores (MUT) ([2]; Supplementary Table 1): 7.54
Change of B-scores (%) [2, 3]: -73.85%

CCn1cc(C(=O)O)c(=O)c2cc(F)c(N3CCNCC3)cc21 [Norfloxacin]
B-scores (WT) ([1]; Supplementary Table 1): 28.07
B-scores (WT) ([1]; Supplementary Table 2): 28.07
B-scores (WT) ([1]; Table 1): 28.07
B-scores (MUT) ([2]; Supplementary Table 2): 0.05
B-scores (MUT) ([2]; Table 1): 0.05
Change of B-scores (%) [2, 3]: -99.81%
Change of B-scores (%) [2, 4]: -99.81%
Change of B-scores (%) [2, 5]: -99.81%

CNCCC=C1c2ccccc2CCc2ccccc21 [Nortriptyline Hydrochloride]
B-scores (WT) ([1]; Supplementary Table 2): 16.29
B-scores (MUT) ([2]; Supplementary Table 2): 2.78
Change of B-scores (%) [2, 5]: -82.96%

NCCC(O)(P(=O)([O-])O)P(=O)([O-])O.[Na+].[Na+] [Pamidronate disodium]
B-scores (WT) ([1]; Supplementary Table 1): 30.08
B-scores (MUT) ([2]; Supplementary Table 1): 18.72
Change of B-scores (%) [2, 3]: -37.79%

CCn1cc(C(=O)O)c(=O)c2cc(F)c(N3CCN(C)CC3)cc21.CS(=O)(=O)O [Pefloxacine Mesylate]
B-scores (WT) ([1]; Supplementary Table 2): 7.86
B-scores (MUT) ([2]; Supplementary Table 2): -0.79
Change of B-scores (%) [2, 5]: -110.02%

N=C(N)c1ccc(OCCCCCOc2ccc(C(=N)N)cc2)cc1 [Pentamidine Isethionate]
B-scores (WT) ([1]; Supplementary Table 1): 37.48
B-scores (MUT) ([2]; Supplementary Table 1): 0.43
Change of B-scores (%) [2, 3]: -98.84%

N=C(N)c1ccc(OCCCCCOc2ccc(C(=N)N)cc2)cc1 [Pentamidine]
B-scores (WT) ([1]; Supplementary Table 1): 24.12
B-scores (MUT) ([2]; Supplementary Table 1): 8.70
Change of B-scores (%) [2, 3]: -63.92%

CN1CCC(=C2c3ccccc3CCc3sccc32)CC1.O=C(O)CC(O)C(=O)O [Pizotyline Malate]
B-scores (WT) ([1]; Supplementary Table 1): 39.73
B-scores (MUT) ([2]; Supplementary Table 1): 1.29
Change of B-scores (%) [2, 3]: -96.75%

CN(C)CCCN1c2ccccc2Sc2ccccc21 [Promazine Hydrochloride]
B-scores (WT) ([1]; Supplementary Table 1): 23.47
B-scores (WT) ([1]; Supplementary Table 2): 23.47
B-scores (WT) ([1]; Table 1): 23.47
B-scores (MUT) ([2]; Supplementary Table 1): 8.13
B-scores (MUT) ([2]; Supplementary Table 2): 8.13
B-scores (MUT) ([2]; Table 1): 8.13
Change of B-scores (%) [2, 3]: -65.37%
Change of B-scores (%) [2, 4]: -65.37%
Change of B-scores (%) [2, 5]: -65.37%

CNCCCC1c2ccccc2C=Cc2ccccc21 [Protriptyline Hydrochloride]
B-scores (WT) ([1]; Supplementary Table 1): 24.43
B-scores (WT) ([1]; Table 1): 24.43
B-scores (MUT) ([2]; Supplementary Table 1): 3.59
B-scores (MUT) ([2]; Table 1): 3.59
Change of B-scores (%) [2, 3]: -85.30%
Change of B-scores (%) [2, 4]: -85.30%

COc1ccc(CN(CCN(C)C)c2ccccn2)cc1 [Pyrilamine]
B-scores (WT) ([1]; Supplementary Table 2): 13.36
B-scores (MUT) ([2]; Supplementary Table 2): 0.23
Change of B-scores (%) [2, 5]: -98.24%

CCOC(=O)[C@H](CCc1ccccc1)N[C@@H](C)C(=O)N1[C@H](C(=O)O)C[C@@H]2CCC[C@@H]21 [Ramipril]
B-scores (WT) ([1]; Supplementary Table 1): 22.18
B-scores (MUT) ([2]; Supplementary Table 1): 31.66
Change of B-scores (%) [2, 3]: 42.73%

CO[C@H]1/C=C/O[C@@]2(C)Oc3c(C)c(O)c4c(O)c(c(/C=N/N5CCN(C)CC5)c(O)c4c3C2=O)NC(=O)/C(C)=C\C=C\[C@H](C)[C@H](O)[C@@H](C)[C@@H](O)[C@@H](C)[C@H](OC(C)=O)[C@@H]1C [Rifampin]
B-scores (WT) ([1]; Supplementary Table 1): 23.94
B-scores (WT) ([1]; Table 1): 23.94
B-scores (MUT) ([2]; Supplementary Table 1): 0.37
B-scores (MUT) ([2]; Table 1): 0.37
Change of B-scores (%) [2, 3]: -98.45%
Change of B-scores (%) [2, 4]: -98.45%

CN1CCN(c2c(F)cc3c(=O)c(C(=O)O)cn4c3c2SCC4)CC1.Cl [Rufloxacin Hydrochloride]
B-scores (WT) ([1]; Supplementary Table 1): 19.85
B-scores (WT) ([1]; Table 1): 19.85
B-scores (MUT) ([2]; Table 1): -0.15
Change of B-scores (%) [2, 3]: -100.76%
Change of B-scores (%) [2, 4]: -100.76%

CC(C)(C)NCC(O)c1ccc(O)c(CO)c1 (stereo not shown) [Salbutamol]
B-scores (WT) ([1]; Supplementary Table 2): 13.61
B-scores (MUT) ([2]; Supplementary Table 2): 0.36
Change of B-scores (%) [2, 5]: -97.38%

O=C(O)c1cn(-c2ccc(F)cc2)c2cc(N3CCNCC3)c(F)cc2c1=O [Sarafloxacin hydrochloride]
B-scores (WT) ([1]; Supplementary Table 2): 15.97
B-scores (MUT) ([2]; Supplementary Table 2): 0
Change of B-scores (%) [2, 5]: -100%

CN1CCN(CCCN2c3ccccc3Sc3ccc(C(F)(F)F)cc32)CC1 [Stelazine]
B-scores (WT) ([1]; Supplementary Table 2): 7.75
B-scores (MUT) ([2]; Supplementary Table 2): 1.08
Change of B-scores (%) [2, 5]: -86.07%

CC(C)(C)NCC(O)c1cc(O)cc(O)c1.CC(C)(C)NCC(O)c1cc(O)cc(O)c1.O=S(=O)(O)O (stereo not shown) [Terbutaline Hemisulfate]
B-scores (WT) ([1]; Supplementary Table 2): 15.97
B-scores (MUT) ([2]; Supplementary Table 2): 1.91
Change of B-scores (%) [2, 5]: -88.03%

C[CH2][Hg][S]c1ccccc1C(=O)[O-].[Na+] [Thimerosal]
B-scores (WT) ([1]; Supplementary Table 1): 18.55
B-scores (MUT) ([2]; Supplementary Table 1): 0.33
Change of B-scores (%) [2, 3]: -98.25%

CN1CCN(CC/C=C2/c3ccccc3Sc3ccc(S(=O)(=O)N(C)C)cc32)CC1 [Thiothixene]
B-scores (WT) ([1]; Supplementary Table 1): 20.36
B-scores (WT) ([1]; Table 1): 20.36
B-scores (MUT) ([2]; Supplementary Table 1): 5.11
B-scores (MUT) ([2]; Table 1): 5.11
Change of B-scores (%) [2, 3]: -74.90%
Change of B-scores (%) [2, 4]: -74.90%

COc1ccc(CN(CCN(C)C)c2ncccn2)cc1 [Thonzylamine Hydrochloride]
B-scores (WT) ([1]; Supplementary Table 1): 33.23
B-scores (WT) ([1]; Table 1): 33.23
B-scores (MUT) ([2]; Supplementary Table 1): 1.69
B-scores (MUT) ([2]; Table 1): 1.69
Change of B-scores (%) [2, 3]: -94.91%
Change of B-scores (%) [2, 4]: -94.91%

CN(C)CCCN1c2ccccc2Sc2ccc(C(F)(F)F)cc21 [Triflupromazine Hydrochloride]
B-scores (WT) ([1]; Supplementary Table 2): 8.62
B-scores (MUT) ([2]; Supplementary Table 2): 0.85
Change of B-scores (%) [2, 5]: -90.15%

CC(CN(C)C)CN1c2ccccc2Sc2ccccc21.CC(CN(C)C)CN1c2ccccc2Sc2ccccc21.O=C(O)C(O)C(O)C(=O)O (stereo not shown) [Trimeprazine Tartrate]
B-scores (WT) ([1]; Supplementary Table 1): 27.11
B-scores (MUT) ([2]; Supplementary Table 1): 19.11
Change of B-scores (%) [2, 3]: -29.51%

COc1cc(C(=O)NCc2ccc(OCCN(C)C)cc2)cc(OC)c1OC [Trimethobenzamide Hydrochloride]
B-scores (WT) ([1]; Supplementary Table 1): 18.56
B-scores (MUT) ([2]; Supplementary Table 1): 0.14
Change of B-scores (%) [2, 3]: -99.27%

CC(CN(C)C)CN1c2ccccc2CCc2ccccc21 (stereo not shown) [Trimipramine Maleate]
B-scores (WT) ([1]; Supplementary Table 1): 23.09
B-scores (WT) ([1]; Table 1): 23.09
B-scores (MUT) ([2]; Supplementary Table 1): 3.48
B-scores (MUT) ([2]; Table 1): 3.48
Change of B-scores (%) [2, 3]: -84.91%
Change of B-scores (%) [2, 4]: -84.91%

Cc1ccc(/C(=C\CN2CCCC2)c2ccccn2)cc1.Cl [Triprolidine Hydrochloride]
B-scores (WT) ([1]; Supplementary Table 1): 20.71
B-scores (WT) ([1]; Table 1): 20.71
B-scores (MUT) ([2]; Supplementary Table 1): 0.68
B-scores (MUT) ([2]; Table 1): 0.68
Change of B-scores (%) [2, 3]: -96.71%
Change of B-scores (%) [2, 4]: -96.71%

COc1ccc(CCN(C)CCCC(C#N)(c2ccc(OC)c(OC)c2)C(C)C)cc1OC (stereo not shown) [Verapamil Hydrochloride]
B-scores (WT) ([1]; Supplementary Table 2): 9.68
B-scores (MUT) ([2]; Supplementary Table 2): 1.41
Change of B-scores (%) [2, 5]: -85.46%

COc1ccc(CCN(C)CCCC(C#N)(c2ccc(OC)c(OC)c2)C(C)C)cc1OC (stereo not shown) [Verapamil]
B-scores (WT) ([1]; Supplementary Table 2): 5.44
B-scores (MUT) ([2]; Supplementary Table 2): -1.44
Change of B-scores (%) [2, 5]: -126.44%

Buserelin
B-scores (WT) ([1]; Supplementary Table 1): 20.46
B-scores (WT) ([1]; Table 1): 20.46
B-scores (MUT) ([2]; Supplementary Table 1): 5.73
B-scores (MUT) ([2]; Table 1): 5.73
Change of B-scores (%) [2, 3]: -71.99%
Change of B-scores (%) [2, 4]: -71.99%
